According to patent US20030109523A1, “Bicyclic antagonists selective for the alphavbeta3 integrin” (Wyeth, priority 1999, published 2003):

Legend:
[1] = molecular target: T1, αIIbβ3 integrin (Homo sapiens, UniProt P05106+P08514); assay: ADP-Induced Platelet Aggregation; type: cell-based; settings: Table VII; for IC50: ADP 20 uM, human platelets, read-out: Platelet Aggregation αIIbβ3 IC50
T1 construct: Human Platelets: Platelet-enriched plasma was obtained commercially from a donor pool; from tissue; host or cells: human platelet-rich plasma from a commercial donor pool
T1 sequence (P08514 32-887 limits assumed): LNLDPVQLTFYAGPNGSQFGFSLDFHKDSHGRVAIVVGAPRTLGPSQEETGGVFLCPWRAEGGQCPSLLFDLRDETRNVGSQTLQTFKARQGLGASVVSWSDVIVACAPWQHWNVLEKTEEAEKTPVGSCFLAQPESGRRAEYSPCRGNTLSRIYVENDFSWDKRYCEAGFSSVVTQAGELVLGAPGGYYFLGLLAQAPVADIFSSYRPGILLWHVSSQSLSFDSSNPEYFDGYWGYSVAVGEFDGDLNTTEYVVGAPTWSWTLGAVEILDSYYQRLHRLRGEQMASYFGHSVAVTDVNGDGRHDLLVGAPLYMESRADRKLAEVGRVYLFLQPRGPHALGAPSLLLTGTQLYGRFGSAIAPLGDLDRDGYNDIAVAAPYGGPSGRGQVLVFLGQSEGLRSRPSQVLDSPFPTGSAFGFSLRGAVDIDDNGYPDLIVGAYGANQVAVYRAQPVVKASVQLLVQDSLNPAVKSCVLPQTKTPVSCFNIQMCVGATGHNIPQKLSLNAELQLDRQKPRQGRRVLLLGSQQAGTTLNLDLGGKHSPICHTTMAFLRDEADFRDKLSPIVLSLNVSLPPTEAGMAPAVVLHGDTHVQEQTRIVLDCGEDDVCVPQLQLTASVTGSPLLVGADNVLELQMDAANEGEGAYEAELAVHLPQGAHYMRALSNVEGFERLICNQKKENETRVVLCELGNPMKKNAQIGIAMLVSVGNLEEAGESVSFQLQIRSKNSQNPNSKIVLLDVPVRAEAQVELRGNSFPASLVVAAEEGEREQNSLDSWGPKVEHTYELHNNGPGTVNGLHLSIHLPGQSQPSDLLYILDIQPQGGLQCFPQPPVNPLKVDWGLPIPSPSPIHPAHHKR
T1 sequence (P08514 891-1039 partner limits assumed): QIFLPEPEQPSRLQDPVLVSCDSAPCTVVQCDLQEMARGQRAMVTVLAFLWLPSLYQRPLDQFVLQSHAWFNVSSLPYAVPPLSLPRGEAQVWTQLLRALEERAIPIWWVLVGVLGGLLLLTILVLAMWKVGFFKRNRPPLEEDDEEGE
T1 sequence (P05106 27-788): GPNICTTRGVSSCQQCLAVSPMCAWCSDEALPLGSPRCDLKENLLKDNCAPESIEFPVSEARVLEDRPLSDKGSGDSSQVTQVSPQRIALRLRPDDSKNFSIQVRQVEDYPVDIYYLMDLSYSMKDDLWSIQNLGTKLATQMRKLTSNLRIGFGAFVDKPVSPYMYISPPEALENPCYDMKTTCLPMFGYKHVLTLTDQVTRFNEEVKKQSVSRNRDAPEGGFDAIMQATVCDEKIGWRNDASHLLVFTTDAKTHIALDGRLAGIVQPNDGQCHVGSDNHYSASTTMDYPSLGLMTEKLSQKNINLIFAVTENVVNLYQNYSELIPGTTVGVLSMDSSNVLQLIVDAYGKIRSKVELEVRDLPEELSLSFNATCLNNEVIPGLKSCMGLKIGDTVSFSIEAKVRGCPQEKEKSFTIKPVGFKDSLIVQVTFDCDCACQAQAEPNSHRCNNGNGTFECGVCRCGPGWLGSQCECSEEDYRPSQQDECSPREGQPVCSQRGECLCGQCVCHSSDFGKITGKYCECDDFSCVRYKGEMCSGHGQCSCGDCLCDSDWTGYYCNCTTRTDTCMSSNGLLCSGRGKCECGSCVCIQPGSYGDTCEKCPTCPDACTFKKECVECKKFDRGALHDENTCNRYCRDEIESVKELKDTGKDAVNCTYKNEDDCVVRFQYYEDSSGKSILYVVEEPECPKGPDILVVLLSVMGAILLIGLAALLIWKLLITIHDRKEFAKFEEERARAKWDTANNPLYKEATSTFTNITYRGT
Description: Measurement of the Effect of Compounds on ADP-Induced Platelet Aggregation
Measuring the effect of compounds on ADP-induced platelet aggregation mediated by a fibrinogen-αIIbβ3 integrin interaction.
Human Platelets: Platelet-enriched plasma was obtained commercially from a donor pool. The plasma was tested prior to shipment and found to be negative for HIV, HCV and Hepatitis B. Platelet-rich plasma (PRP) was obtained by diluting plasma to an approximate final concentration of 3×10(6) platelets per mL in platelet poor plasma (PPP). PPP was the supernatant of a lowspeed centrifugation of plasma.
Adenosine diphosphate (ADP): ADP was obtained commercially and diluted to 1 mM (stock solution) in distilled, deionized water (ddH2O).
Incubation: PRP and PPP were prewarmed in a water bath at 37° C. […] PRP plus sample compound in a final volume of 500 uL was added to a pre-warmed cuvette in a ChronoLog aggregometer. A control containing PRP and 5 uL of vehicle was treated similarly to the test cuvette; final vehicle concentration was 1%. The two cuvettes were incubated with stirring (1000 rpm) at 37° C. for 5 minutes. Five hundred microliters of PPP was used as a reference (100% aggregation).
Aggregation: To begin the test, ADP was added yielding a final concentration of 20 uM to both samples (plus and minus sample compound). Light transmittance was monitored continuously and compared to the reference cuvette. After five minutes, the test was terminated and the slope and maximal amplitude of the resulting aggregation plot was calculated by the aggregometer.
The percent of maximal aggregation is the ratio of the maximal aggregations of the sample cuvette to the control multiplied by 100 (% Max) and reported as the mean+−standard deviation.

[2] = molecular target: T2, αVβ3 integrin (Homo sapiens, UniProt P05106+P06756); assay: Osteopontin-αVβ3 Cell Attachment Test Procedure; type: cell-based; settings: for IC50: attachment of cells to osteopontin, read-out: (αVβ3) IC50 CELL ATTACHMENT; for remaining activity at 100 µM / remaining activity at 20 µM: % of maximal attachment, read-out: (αVβ3) CELL ATTACHMENT, % @ concentration
T2 construct: αVβ3-expressing cell lines are maintained by standard tissue culture techniques; endogenous in cells; host or cells: αVβ3-expressing cell lines
T2 sequence (P06756 31-889 limits assumed): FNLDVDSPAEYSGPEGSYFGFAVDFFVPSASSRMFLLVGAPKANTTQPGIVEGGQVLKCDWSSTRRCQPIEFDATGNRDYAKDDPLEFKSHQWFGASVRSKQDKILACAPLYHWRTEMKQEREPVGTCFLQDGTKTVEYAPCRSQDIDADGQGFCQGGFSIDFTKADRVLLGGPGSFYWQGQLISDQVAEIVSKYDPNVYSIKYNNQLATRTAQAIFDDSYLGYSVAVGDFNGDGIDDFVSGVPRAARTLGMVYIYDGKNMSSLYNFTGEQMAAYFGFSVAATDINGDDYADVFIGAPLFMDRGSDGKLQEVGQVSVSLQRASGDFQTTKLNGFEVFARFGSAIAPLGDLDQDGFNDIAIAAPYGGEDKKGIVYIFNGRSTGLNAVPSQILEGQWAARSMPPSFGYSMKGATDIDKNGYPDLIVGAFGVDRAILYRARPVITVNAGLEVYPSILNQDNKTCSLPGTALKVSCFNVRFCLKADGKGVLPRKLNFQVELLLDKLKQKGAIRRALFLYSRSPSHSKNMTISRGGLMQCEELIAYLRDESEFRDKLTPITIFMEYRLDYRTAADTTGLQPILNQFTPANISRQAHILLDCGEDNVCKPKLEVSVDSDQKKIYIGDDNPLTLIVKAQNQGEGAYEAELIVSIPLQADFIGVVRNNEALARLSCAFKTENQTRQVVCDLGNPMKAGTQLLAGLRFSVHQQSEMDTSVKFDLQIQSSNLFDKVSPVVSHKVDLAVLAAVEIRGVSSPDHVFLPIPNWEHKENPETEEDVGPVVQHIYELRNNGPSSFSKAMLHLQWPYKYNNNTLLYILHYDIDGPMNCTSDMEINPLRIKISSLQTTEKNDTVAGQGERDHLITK
T2 sequence (P06756 891-1048 partner limits assumed): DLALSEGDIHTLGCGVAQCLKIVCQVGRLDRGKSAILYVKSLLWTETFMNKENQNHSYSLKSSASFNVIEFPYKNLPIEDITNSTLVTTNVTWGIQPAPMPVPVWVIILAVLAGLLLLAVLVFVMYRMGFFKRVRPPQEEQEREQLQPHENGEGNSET
T2 sequence (P05106 27-788): as the sequence (P05106 27-788) above
Description: Osteopontin-αVβ3 Cell Attachment Test Procedure
Measuring the effect of compounds on the RGD-dependent attachment of cells to osteopontin mediated by the αVβ3 integrin.
Following incubation the wells were aspirated and washed once with D-PBS; plates can either be used immediately or stored for up to 1 week at 4° C. Prior to assay, the wells were blocked with 1% bovine serum albumin (BSA) in cell suspension media for 1 hour at 37° C. Following the blocking period, wells were aspirated and washed once with D-PBS.
αVβ3-expressing cell lines are maintained by standard tissue culture techniques. […] The cells were pelleted by low-speed centrifugation and washed three times with 0.5 mg/mL trypsin inhibitor in D-PBS (Sigma). The final cell pellet was resuspended in cell suspension media at a concentration of 10^6 cells/mL.
Incubation: 100 μL of diluted test compound was added to osteopontin-coated wells (in triplicate) followed by 100 μL of cell suspension; background cell attachment was determined in uncoated wells. The plate was incubated at 25° C. in a humidified air atmosphere for 1.5 hours. Following the incubation period, the wells were gently aspirated and washed once with D-PBS.
Cell Number Detection: The number of cells attached was determined by an MTT dye conversion assay (Promega) according to the manufacturer's instructions. Briefly, MTT dye was diluted in cell suspension media (15:85) and 100 μL was added to each well. […] The assay plates were covered and incubated at 37° C. in a humidified air atmosphere overnight.
The individual well optical density was expressed as a percentage of the maximal attachment (% Max) wells minus background attachment, and reported as the mean ±standard deviation.

[3] = test system: osteoclasts; assay: Osteoclast Bone Pitting; type: cell-based, rat; settings: Rattus norvegicus, Osteoclast
Description: Osteoclast Bone Pitting The test procedure was conducted as described by R. J. Murrills and D. W. […] At this pH the adherent osteoclasts excavate an adequate number of resorption pits for assay purposes. Slices were fixed in 2.5% glutaraldehyde and osteoclasts counted following tartrate-resistant acid phosphatase staining. […] All cells were stripped from the slice by sonication on 0.25M NH4OH and the resorption pits formed by the osteoclasts during the experiment stained with toluidine blue. Resorption pits were quantified by manually counting. The experiments were conducted according to a block design with osteoclasts from each animal exposed to each treatment. Three replicate slices were used per treatment per animal, such that a total of 96 slices were examined for an experiment involving four animals and eight treatments (including control). Several parameters were recorded on a “per slice” basis: number of pits, number of osteoclasts, number of pits per osteoclast, number of fibroblast-like bone cells. SAS or JMP statistical software were used for statistical analysis. […] IC50s were calculated using dose-response curves.

[4] = molecular target: T3, Vitronectin Receptor (αVβ3) (Homo sapiens, UniProt P05106+P06756); assay: Vitronectin Receptor (αVβ3) Binding Test Procedure; settings: for IC50: read-out: (αVβ3) IC50 RECEPTOR BINDING
T3 construct: expressed in transfected cells; host or cells: 512P5 cells (plasma membrane preparation)
T3 sequence (P06756 31-889 limits assumed): as the sequence (P06756 31-889 limits assumed) above
T3 sequence (P06756 891-1048 partner limits assumed): as the sequence (P06756 891-1048 partner limits assumed) above
T3 sequence (P05106 27-788): as the sequence (P05106 27-788) above

[5] = @200 μM, percent of maximal aggregation
[6] = % Max = percentage of the specific binding, read-out: (αVβ3) RECEPTOR BINDING, % @ concentration

Structure (SMILES)	remaining activity at 200 µM [1, 5] [%]	melting point	IC50 [2] [µM]	IC50 [4] [µM]	remaining activity at 100 µM [2] [%]	remaining activity at 30 µM [4, 6] [%]	also measured
N=C(N)NCCCCOc1ccc2c(c1)NC(=O)C(CC(=O)O)C2.O=C(O)C(F)(F)F (stereo not shown) [Example 84, [7-(4-Guanidino-butoxy)-2-oxo-1,2,3,4-tetrahydro-quinolin-3-yl]-acetic Acid Trifluoroacetate]	62	189 to 191 °C	24.5	11.4			inhibition at 223 µM ([3]; @ 223 μM): 57%
N=C(N)NCCOc1ccc2c(c1)NC(=O)C(CCC(=O)O)C2 (stereo not shown) [Example 230, 3-[7-(2-Guanidino-ethoxy)-2-oxo-1,2,3,4-tetrahydro-quinolin-3-yl]-propionic Acid]	95.2	193 to 196 °C			100		inhibition at 230 µM ([3]; @ 230 μM): 15%
N=C(N)NCCCCOc1ccc2c(c1)NC(=O)C(CCC(=O)O)C2 (stereo not shown) [Example 232, 3-[7-(4-Guanidino-butoxy)-2-oxo-1,2,3,4-tetrahydro-quinolin-3-yl]-propionic Acid]		176 to 177 °C			97	75.3	IC50 [1]: 155 µM; inhibition at 216 µM [3]: -70%
N=C(N)NCCCCc1ccc2c(c1)NC(=O)C(CC(=O)O)C2.O=C(O)C(F)(F)F (stereo not shown) [Example 121, [7-(4-Guanidino-butyl)-2-oxo-1,2,3,4-tetrahydro-quinolin-3-yl]-acetic Acid Trifluoroacetate]	62	157 to 160 °C	15.1	2.6			inhibition at 228 µM ([3]; @ 228 μM): 30%
CCn1c(=O)c(CC(=O)O)cc2ccc(OCCCNC(=N)N)cc21.O=C(O)C(F)(F)F [Example 149, [1-Ethyl-7-(3-guanidino-propoxy)-2-oxo-1,2-dihydro-quinolin-3-yl]-acetic Acid Trifluoroacetate]	90.2	131 °C			71.5		remaining activity at 20 µM [2]: 96.3%
N=C(N)NCCC=Cc1ccc2c(c1)NC(=O)C(CC(=O)O)C2.O=C(O)C(F)(F)F (stereo not shown) [Example 112, [7-(4-Guanidino-but-1-enyl)-2-oxo-1,2,3,4-tetrahydro-quinolin-3-yl]-acetic Acid Trifluoroacetate]	80.4	173 to 176 °C	19.7	7			
N=C(N)NCCCOc1ccc2c(c1)N(Cc1ccccc1)C(=O)C(CC(=O)O)C2 (stereo not shown) [Example 172, [1-Benzyl-7-(3-guanidino-propoxy)-2-oxo-1,2,3,4-tetrahydro-quinolin-3-yl]-acetic Acid]	71.5	172 to 173 °C	27.3	2.7			inhibition at 190 µM ([3]; @ 190 μM): 15%
N=C(N)NCCCOc1ccc2c(c1)CCCC(CC(=O)O)C2.O=C(O)C(F)(F)F (stereo not shown) [Example 62, [2-(3-Guanidino-propoxy)-6,7,8,9-tetrahydro-5H-benzocyclohepten-6-yl]-acetic Acid Trifluoroacetate]		109 to 114 °C	14	1.4			IC50 [1]: 169 µM
N=C(N)NCCCCOc1cccc2c1NC(=O)C(CC(=O)O)C2 (stereo not shown) [Example 235, [8-(4-Guanidino-butoxy)-2-oxo-1,2,3,4-tetrahydro-quinolin-3-yl]-acetic Acid]	81.1	207 to 210 °C			91	100	inhibition at 221 µM ([3]; @ 221 μM): -50%
Cl.N=C(N)NCCC#Cc1ccc2c(c1)NC(=O)C(CC(=O)O)C2 (stereo not shown) [Example 100, [7-(4-Guanidino-but-1-ynyl)-2-oxo-1,2,3,4-tetrahydro-quinolin-3-yl]-acetic Acid Hydrochloride]		130 to 180 °C	79				IC50 [1]: 216 µM; inhibition at 264 µM ([3]; @ 264 μM): 38%; remaining activity at 100 µM ([4]; @ 100 μM, % Max = percentage of the specific binding, read-out: (αVβ3) RECEPTOR BINDING, % @ concentration): 30.9%
N=C(N)NCCCOc1ccc2[nH]c(=O)c(CC(=O)O)cc2c1 [Example 237, [6-(3-Guanidino-propoxy)-2-oxo-1,2-dihydro-quinolin-3-yl]-acetic Acid]	96.5	207 to 212 °C (dec.)			114	100	remaining activity at 20 µM [2]: 86.2%
N=C(N)NCCCOc1ccc2cc(CC(=O)O)c(=O)n(Cc3ccccc3)c2c1.O=C(O)C(F)(F)F [Example 239, [1-Benzyl-7-(3-guanidino-propoxy)-2-oxo-1,2-dihydro-quinolin-3-yl]-acetic Acid Trifluoroacetic Acid Salt]		132 to 134 °C			67.5	70	Percent of Maximal [1, 5]: 83.7@200%; remaining activity at 20 µM [2]: 99.7%; inhibition at 19.1 µM ([3]; @ 19.1 μM): 33%
N=C(N)NCCCC=Cc1ccc2c(c1)NC(=O)C(CC(=O)O)C2.O=C(O)C(F)(F)F (stereo not shown) [Example 113, [7-(5-Guanidino-pent-1-enyl)-2-oxo-1,2,3,4-tetrahydro-quinolin-3-yl]-acetic Acid Trifluoroacetate]	77.1	162 to 165 °C	17.8	4			
N=C(N)NCCCOc1ccc2c(c1)NC(=O)C(CCC(=O)O)C2 (stereo not shown) [Example 231, 3-[7-(3-Guanidino-propoxy)-2-oxo-1,2,3,4-tetrahydro-quinolin-3-yl]-propionic Acid]	78.3	157 to 159 °C			93	55.9	
Cl.N=C(N)NCCCCOc1ccc2cc(CC(=O)O)c(=O)[nH]c2c1 [Example 184, [7-(4-Guanidino-butoxy)-2-oxo-1,2-dihydro-quinolin-3-yl]-acetic Acid Hydrochloride]	85.5	216.5 to 219 °C			85	67.5	remaining activity at 20 µM [2]: 108%; inhibition at 271 µM ([3]; @ 271 μM): 37%
CCN1C(=O)C(CC(=O)O)Cc2ccc(OCCCNC(=N)N)cc21.O=C(O)C(F)(F)F (stereo not shown) [Example 158, [1-Ethyl-7-(3-guanidino-propoxy)-2-oxo-1,2,3,4-tetrahydro-quinolin-3-yl]-acetic Acid Trifluoroacetate]		165 to 166 °C					inhibition at 216 µM [3]: 13%
